Test results published in the NIST ThermoML archive (doi:10.1021/je0301040).

Assay: xn = mol fraction of the nth substance listed

FC(Cl)(Cl)Cl [trichlorofluoromethane] + FC(F)Cl
Conditions | mass density [kg/m3]
374.97 K, 3116.9 kPa, Liquid, Pycnometric method, x1 = 0.8336 | 1216.83
374.97 K, 14051 kPa, Liquid, Pycnometric method, x1 = 0.8336 | 1279.66
374.97 K, 21566 kPa, Liquid, Pycnometric method, x1 = 0.8336 | 1310.86
374.97 K, 27844 kPa, Liquid, Pycnometric method, x1 = 0.8336 | 1332.88
374.97 K, 35188 kPa, Liquid, Pycnometric method, x1 = 0.8336 | 1355.43
374.97 K, 42212 kPa, Liquid, Pycnometric method, x1 = 0.8336 | 1374.59
374.97 K, 48936 kPa, Liquid, Pycnometric method, x1 = 0.8336 | 1391.15
374.97 K, 56118 kPa, Liquid, Pycnometric method, x1 = 0.8336 | 1407.35
374.97 K, 63201 kPa, Liquid, Pycnometric method, x1 = 0.8336 | 1422.2
374.97 K, 67438 kPa, Liquid, Pycnometric method, x1 = 0.8336 | 1430.6
374.98 K, 99.9 kPa, Fluid (supercritical or subcritical phases), Burnett expansion method, x1 = 0.832 | 4.192
374.98 K, 100.73 kPa, Fluid (supercritical or subcritical phases), Burnett expansion method, x1 = 0.832 | 4.2353
374.98 K, 141.34 kPa, Fluid (supercritical or subcritical phases), Burnett expansion method, x1 = 0.832 | 5.9685
374.98 K, 195.81 kPa, Fluid (supercritical or subcritical phases), Burnett expansion method, x1 = 0.832 | 8.3248
374.98 K, 197.47 kPa, Fluid (supercritical or subcritical phases), Burnett expansion method, x1 = 0.832 | 8.4097
374.98 K, 216.98 kPa, Fluid (supercritical or subcritical phases), Burnett expansion method, x1 = 0.832 | 9.2699
374.98 K, 272.55 kPa, Fluid (supercritical or subcritical phases), Burnett expansion method, x1 = 0.832 | 11.7304
374.98 K, 275.03 kPa, Fluid (supercritical or subcritical phases), Burnett expansion method, x1 = 0.832 | 11.8505
374.98 K, 301.92 kPa, Fluid (supercritical or subcritical phases), Burnett expansion method, x1 = 0.832 | 13.0615
374.98 K, 377.56 kPa, Fluid (supercritical or subcritical phases), Burnett expansion method, x1 = 0.832 | 16.5279
374.98 K, 381 kPa, Fluid (supercritical or subcritical phases), Burnett expansion method, x1 = 0.832 | 16.6977
374.98 K, 417.41 kPa, Fluid (supercritical or subcritical phases), Burnett expansion method, x1 = 0.832 | 18.4053
374.98 K, 518.62 kPa, Fluid (supercritical or subcritical phases), Burnett expansion method, x1 = 0.832 | 23.2877
374.98 K, 523.72 kPa, Fluid (supercritical or subcritical phases), Burnett expansion method, x1 = 0.832 | 23.528
374.98 K, 569 kPa, Gas, isochoric method, x1 = 0.832 | 201.277
374.98 K, 1592.7 kPa, Liquid, Pycnometric method, x1 = 0.8336 | 1204.96
374.98 K, 1802 kPa, Liquid, Pycnometric method, x1 = 0.8336 | 1206.68
374.98 K, 3500.8 kPa, Liquid, Pycnometric method, x1 = 0.8336 | 1219.67
374.98 K, 7519.3 kPa, Liquid, Pycnometric method, x1 = 0.8336 | 1245.72
375.98 K, 3481.1 kPa, Liquid, isochoric method, x1 = 0.832 | 1216.37
375.98 K, 3481.3 kPa, Liquid, isochoric method, x1 = 0.832 | 1216.37
380.97 K, 5662.2 kPa, Liquid, isochoric method, x1 = 0.832 | 1216.02
385.97 K, 7843.6 kPa, Liquid, isochoric method, x1 = 0.832 | 1215.66
385.97 K, 7845.9 kPa, Liquid, isochoric method, x1 = 0.832 | 1215.66
389.97 K, 399.7 kPa, Gas, isochoric method, x1 = 0.832 | 131.569
389.97 K, 864.3 kPa, Gas, isochoric method, x1 = 0.832 | 304.496
399.96 K, 7536.5 kPa, Liquid, Pycnometric method, x1 = 0.8336 | 1168.49
399.96 K, 49152 kPa, Liquid, Pycnometric method, x1 = 0.8336 | 1348.85
399.97 K, 617 kPa, Gas, isochoric method, x1 = 0.832 | 201.042
399.97 K, 3101 kPa, Liquid, Pycnometric method, x1 = 0.8336 | 1123.2
399.97 K, 3459.9 kPa, Liquid, Pycnometric method, x1 = 0.8336 | 1127.62
399.97 K, 3838.5 kPa, Liquid, Pycnometric method, x1 = 0.8336 | 1132.14
399.97 K, 5333.9 kPa, Liquid, Pycnometric method, x1 = 0.8336 | 1148.2
399.97 K, 14526 kPa, Liquid, Pycnometric method, x1 = 0.8336 | 1217.33
399.97 K, 21523 kPa, Liquid, Pycnometric method, x1 = 0.8336 | 1253.75
399.97 K, 28491 kPa, Liquid, Pycnometric method, x1 = 0.8336 | 1283.14
399.97 K, 35354 kPa, Liquid, Pycnometric method, x1 = 0.8336 | 1307.71
399.97 K, 56281 kPa, Liquid, Pycnometric method, x1 = 0.8336 | 1366.92
399.97 K, 63214 kPa, Liquid, Pycnometric method, x1 = 0.8336 | 1383.07
399.98 K, 2379 kPa, Liquid, Pycnometric method, x1 = 0.8336 | 1111.44
399.98 K, 2438.9 kPa, Liquid, Pycnometric method, x1 = 0.8336 | 1114.58
399.98 K, 2791.2 kPa, Liquid, Pycnometric method, x1 = 0.8336 | 1119.29
399.98 K, 41888 kPa, Liquid, Pycnometric method, x1 = 0.8336 | 1328.37
404.97 K, 909.7 kPa, Gas, isochoric method, x1 = 0.832 | 304.283
404.97 K, 1209.7 kPa, Gas, isochoric method, x1 = 0.832 | 426.452
409.97 K, 5121.7 kPa, Liquid, isochoric method, x1 = 0.832 | 1111.12
414.97 K, 1254.6 kPa, Gas, isochoric method, x1 = 0.832 | 426.252
414.97 K, 1558.2 kPa, Gas, isochoric method, x1 = 0.832 | 556.482
415.97 K, 7015.9 kPa, Liquid, isochoric method, x1 = 0.832 | 1110.75
419.96 K, 1587.9 kPa, Gas, isochoric method, x1 = 0.832 | 556.352
421.97 K, 8915.8 kPa, Liquid, isochoric method, x1 = 0.832 | 1110.38
424.96 K, 76.05 kPa, Fluid (supercritical or subcritical phases), Burnett expansion method, x1 = 0.832 | 2.7936
424.96 K, 106.8 kPa, Fluid (supercritical or subcritical phases), Burnett expansion method, x1 = 0.832 | 3.939
424.96 K, 136.17 kPa, Fluid (supercritical or subcritical phases), Burnett expansion method, x1 = 0.832 | 5.049
424.96 K, 191.33 kPa, Fluid (supercritical or subcritical phases), Burnett expansion method, x1 = 0.832 | 7.117
424.96 K, 210.5 kPa, Fluid (supercritical or subcritical phases), Burnett expansion method, x1 = 0.832 | 7.8282
424.96 K, 268.07 kPa, Fluid (supercritical or subcritical phases), Burnett expansion method, x1 = 0.832 | 10.034
